Assay [1] concerns HT22. Description: In vitro ischemia. In kind it is cell-based. The conditions noted are these: Mus musculus, HT-22, read-out: Half-maximal effective concentration, In vitro ischemia. As to the method: (§1) The various phenotypic screening assays were conducted as previously described. Briefly, HT-22, primary cortical neurons, or MC65 was plated and exposed to the different environmental stresses. Cells were treated with varying concentrations of CAD-31, and half-maximal effective concentration (EC50) was determined on the basis of cell viability.
(§2) • An assay that mimics the dramatic loss of neurotrophic support in the old brain is the trophic factor withdrawal assay. Primary embryonic day 18 cortical cells are plated at low density in serum-free medium. At low density, the cells die within 2 days; they can be rescued by combinations of neurotrophic growth factors, but not by one alone ([19] and unpublished data). […] BDNF is a molecule that is also involved in promoting memory and neurogenesis and is reduced in the brain with age and in AD, as well as in other neurological disorders. BDNF has long been considered a drug target for AD [23]. […] A reduction in GSH is a common denominator of old age and essentially all chronic central nervous system (CNS) diseases. J147 and CAD-31 both effectively reduce oxidative stress, with EC50 of 6 nM and 20 nM, respectively. • CAD-31 also prevents loss of energy metabolism that leads to neuron cell death in an in vitro ischemia model. […]

In assay [2] the test system is normal rodents. Also on record: method as in PMID 22194796, PMID 23673233, PMID 27149904. The conditions noted are these: cited from earlier work.
Assay [3] deals with primary cortical neurons. In words: Oxytosis. In kind it is cell-based. The conditions noted are these: Primary cortical neuron; read-out: Half-maximal effective concentration, Oxytosis. As to the method:
as §1, §2

The subject of assay [4] is very old transgenic AD mice. Details: method as in PMID 23673233. The conditions noted are these: fed to very old transgenic AD mice; cited from earlier work.
For assay [5], the target named is Aβ1–42 (Homo sapiens, UniProt P05067). Description: Thioflavin S Aβ1–42 aggregation assay. The assay is classed as biochemical. The conditions noted are these: data not shown.
Assay [6] relates to HT22 cells expressing the brain-derived neurotrophic factor (BDNF) receptor transmembrane receptor kinase B. Description: BDNF-like activity (rescue from serum starvation). The assay is classed as cell-based. The conditions noted are these: Mus musculus, HT-22, read-out: Half-maximal effective concentration, BDNF-like activity. As to the method: as §1, §2
The subject of assay [7] is Primary embryonic day 18 cortical cells. Description: Trophic factor withdrawal assay. The assay is classed as cell-based. The conditions noted are these: Cortical neurone; Cortical neuron; cell viability; read-out: Half-maximal effective concentration, Trophic factor withdrawal. As to the method: as §1, §2
The test system of assay [8] is MC65. Description: Aβ toxicity (intracellular). The assay is classed as cell-based, human. The conditions noted are these: Homo sapiens, MC65, MC65; read-out: Half-maximal effective concentration, Aβ toxicity (intracellular). As to the method:
as §1
• An assay that mimics the dramatic loss of neurotrophic support in the old brain is the trophic factor withdrawal assay. Primary embryonic day 18 cortical cells are plated at low density in serum-free medium. At low density, the cells die within 2 days; they can be rescued by combinations of neurotrophic growth factors, but not by one alone ([19] and unpublished data). […] BDNF is a molecule that is also involved in promoting memory and neurogenesis and is reduced in the brain with age and in AD, as well as in other neurological disorders. BDNF has long been considered a drug target for AD [23]. […] A reduction in GSH is a common denominator of old age and essentially all chronic central nervous system (CNS) diseases. J147 and CAD-31 both effectively reduce oxidative stress, with EC50 of 6 nM and 20 nM, respectively. • CAD-31 also prevents loss of energy metabolism that leads to neuron cell death in an in vitro ischemia model. […] Intracellular Aβ toxicity was assayed in the human neuron cell line MC65 that conditionally expresses the C99 fragment of the amyloid precursor protein. When the cells are induced to make Aβ, the cells die within 4 days. Both J147 and CAD-31 block this toxicity at around 10 nM. Therefore, CAD-31 has a repertoire of neuroprotective activities similar but not identical to that of its parent compound, J147.

The subject of assay [9] is senescence-accelerated mouse-prone 8 (SAMP8) mice. Details: method as in PMID 26564964. The conditions noted are these: model of sporadic AD; cited from earlier work.
Assay [10] relates to APPswe/PS1∆E9 mice. Also on record: method as in PMID 22194796, PMID 23673233, PMID 27149904. The conditions noted are these: administered to 3-month-old APPswe/PS1∆E9 mice for 7 months; cited from earlier work.
For assay [11], the system named is rat hippocampal neurons. Description: Aβ toxicity (extracellular). The assay is classed as cell-based. The conditions noted are these: Hippocampal neuron, read-out: Half-maximal effective concentration, Aβ toxicity (extracellular).
In assay [12] the test system is APPswe/PS1∆E9-transgenic mice. Also on record: method as in PMID 23785163. The conditions noted are these: fed to APPswe/PS1∆E9-transgenic mice, preventive paradigm; cited from earlier work.

This is an account of results in PMC5513091, “A novel Alzheimer’s disease drug candidate targeting inflammation and fatty acid metabolism” (Alzheimer's Research & Therapy, 2017).

Structures are written as SMILES. pEC50: −log10 of the molar value.

Chain of Aβ1–42 (P05067 672-713 limits assumed): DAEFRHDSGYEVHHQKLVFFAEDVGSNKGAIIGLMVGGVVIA

As to `COc1cccc(/C=N/N(C(=O)C(F)(F)F)c2ccc(C)cc2C)c1` [J147, reference compound], the pEC50 is 7.85 in assay [1]; 8.22 in [3]; 7.13 in assay [6]; 7.46 in [7]; about 8.00 in assay [8]; 7.82 in assay [11]. The memory entry in assay [2] is given as “facilitates memory in normal rodents”. Moreover, the “memory deficits and AD pathology” value in [4] is “reverses memory deficits and some AD pathology”. In addition, in assay [5], the “binding to and direct inhibition of Aβ1–42 aggregation” value was “Neither J147 nor CAD-31 binds to and directly inhibits Aβ1–42 aggregation”. In addition, the “loss of synaptic proteins and cognitive decline” value in assay [9] is “prevents the loss of synaptic proteins and cognitive decline”; in [10], “prevents the loss of synaptic proteins and cognitive decline”.
As for `COc1cc(/C=C/c2cc(/C=C/c3ccc(O)c(OC)c3)n(-c3ccccc3)n2)ccc1O` [CNB-001], the “accumulation of ubiquitinated, aggregated proteins in the brain” value in assay [12] is recorded as “reduces the accumulation of ubiquitinated, aggregated proteins in the brain”.
